The target of one data set is T1, 5-HT1A receptor (Homo sapiens, UniProt P08908).
T1 construct: expressed in transfected cells
T1 sequence (P08908 1-422): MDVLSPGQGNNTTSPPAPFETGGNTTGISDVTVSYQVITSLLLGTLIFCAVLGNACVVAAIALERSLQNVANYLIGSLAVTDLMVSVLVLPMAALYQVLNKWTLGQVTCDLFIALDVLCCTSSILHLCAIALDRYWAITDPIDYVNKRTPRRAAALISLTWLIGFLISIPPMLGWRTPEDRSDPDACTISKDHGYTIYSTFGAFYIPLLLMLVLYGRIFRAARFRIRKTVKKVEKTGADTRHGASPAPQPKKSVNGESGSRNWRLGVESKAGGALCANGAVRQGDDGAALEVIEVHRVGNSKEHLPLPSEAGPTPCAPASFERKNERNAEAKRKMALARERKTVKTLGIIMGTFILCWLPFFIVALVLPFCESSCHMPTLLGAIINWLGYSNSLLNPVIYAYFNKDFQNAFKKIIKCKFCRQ
In words: human monoamine GPCR binding profile, 5-HT1A. As to conditions: at least about 30 fold to over 1500 fold lower IC50. The source says:
(§1) As known in the art, human monoamine GPCR binding profiles were obtained using heterologously expressed cloned human GPCRs in the binding experiments. Both pKi and IC50 (nM concentration) values were obtained as well as an average value of each from at least three determinations.

For a further data set, the target named is T2, D2A (Homo sapiens, UniProt P14416).
T2 construct: expressed in transfected cells
In words: dopaminergic receptor binding, D2A. As to conditions: result in words. As for the experimental part:
as §1
(§2) Dopaminergic receptors D2A, D2B, D3, and D4 were also tested.

The target in another data set is T3, D2B (Homo sapiens, UniProt P14416).
T3 construct: expressed in transfected cells
In words: dopaminergic receptor binding, D2B. The conditions noted are these: result in words. Here is the method:
as §1, §2

In the next data set the target is T4, D3 (Homo sapiens, UniProt P35462).
T4 construct: expressed in transfected cells
In words: dopaminergic receptor binding, D3. The conditions noted are these: result in words. Here is the method:
as §1, §2

The target of another data set is T5, Alpha 2A (Homo sapiens, UniProt P08913).
T5 construct: expressed in transfected cells
T5 sequence (P08913 1-465): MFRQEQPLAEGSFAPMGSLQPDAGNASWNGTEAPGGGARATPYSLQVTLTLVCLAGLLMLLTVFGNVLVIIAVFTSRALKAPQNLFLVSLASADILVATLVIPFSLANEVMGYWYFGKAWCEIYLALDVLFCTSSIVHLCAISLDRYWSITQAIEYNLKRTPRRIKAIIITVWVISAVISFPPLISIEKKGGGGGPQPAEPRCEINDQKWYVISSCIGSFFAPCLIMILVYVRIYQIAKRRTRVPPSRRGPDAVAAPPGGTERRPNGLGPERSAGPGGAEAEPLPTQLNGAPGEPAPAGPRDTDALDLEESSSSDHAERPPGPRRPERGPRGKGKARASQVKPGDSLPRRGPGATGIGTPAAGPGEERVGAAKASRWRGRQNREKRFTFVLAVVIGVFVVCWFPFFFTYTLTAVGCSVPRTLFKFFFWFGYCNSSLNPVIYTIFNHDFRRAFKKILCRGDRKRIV
Put plainly: alpha-adrenergic receptor binding, Alpha 2A. As to conditions: result in words. Here is the method:
as §1, §2

The next data set addresses T6, Alpha 2B (Homo sapiens, UniProt P18089).
T6 construct: expressed in transfected cells
T6 sequence (P18089 1-450): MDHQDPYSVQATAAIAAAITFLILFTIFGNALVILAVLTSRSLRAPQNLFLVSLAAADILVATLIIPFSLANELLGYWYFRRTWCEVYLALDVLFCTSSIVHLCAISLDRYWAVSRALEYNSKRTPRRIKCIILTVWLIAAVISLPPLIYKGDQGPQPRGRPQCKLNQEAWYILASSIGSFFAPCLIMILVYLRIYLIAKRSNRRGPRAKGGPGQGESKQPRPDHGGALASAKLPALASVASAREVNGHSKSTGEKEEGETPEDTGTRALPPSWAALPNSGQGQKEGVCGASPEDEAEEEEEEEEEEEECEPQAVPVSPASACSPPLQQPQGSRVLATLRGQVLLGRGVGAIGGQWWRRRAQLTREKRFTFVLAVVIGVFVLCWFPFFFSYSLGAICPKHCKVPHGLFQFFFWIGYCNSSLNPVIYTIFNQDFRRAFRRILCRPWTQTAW
In words: alpha-adrenergic receptor binding, Alpha 2B. As to conditions: result in words. As for the experimental part: as §1, §2

Another data set has as its target T7, Alpha 2C receptor (Homo sapiens, UniProt P18825).
T7 construct: expressed in transfected cells
T7 sequence (P18825 1-462): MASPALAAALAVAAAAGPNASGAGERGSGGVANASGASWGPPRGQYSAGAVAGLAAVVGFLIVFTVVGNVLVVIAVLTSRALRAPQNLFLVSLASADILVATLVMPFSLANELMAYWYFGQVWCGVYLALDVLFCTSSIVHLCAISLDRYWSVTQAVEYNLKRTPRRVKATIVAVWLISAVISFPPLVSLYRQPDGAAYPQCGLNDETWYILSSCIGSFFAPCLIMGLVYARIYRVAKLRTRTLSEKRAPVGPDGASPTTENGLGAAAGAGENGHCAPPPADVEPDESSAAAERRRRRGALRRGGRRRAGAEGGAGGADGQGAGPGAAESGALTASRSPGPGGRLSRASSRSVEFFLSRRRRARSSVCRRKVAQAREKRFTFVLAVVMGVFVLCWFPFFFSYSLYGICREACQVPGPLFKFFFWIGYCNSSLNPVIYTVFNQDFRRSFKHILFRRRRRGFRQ
Put plainly: alpha-adrenergic receptor binding, Alpha 2C. The conditions noted are these: result in words. As for the experimental part: as §1, §2

A short description of data set [1]: plasma levels of 3-OH gepirone after administration of gepirone. The data set is classed as in vivo. As to conditions: human subjects administered a dose of gepirone; FIG. 2; result in words. Here is the method: “Time (H)” represents time after administration.
Each sample corresponds to a 0.5 ml plasma sample, extracted with 6 ml of (2:1) (v/v) hexane:chloroform for 1 hour. After separation by centrifuge, the organic layer is transferred to a 10 ml conical tube and 90 ul of 1% formic acid is added. The tube is vortexed for 10 minutes and centrifuged for 5 minutes. About 80 ul of the formic acid layer is transferred into injection vials for HPLC/MS analysis.

The conditions of data set [2]: cited from earlier work; for half-life: result in words.

Each structure is given as a SMILES string.

T4 sequence (P35462 whole entry): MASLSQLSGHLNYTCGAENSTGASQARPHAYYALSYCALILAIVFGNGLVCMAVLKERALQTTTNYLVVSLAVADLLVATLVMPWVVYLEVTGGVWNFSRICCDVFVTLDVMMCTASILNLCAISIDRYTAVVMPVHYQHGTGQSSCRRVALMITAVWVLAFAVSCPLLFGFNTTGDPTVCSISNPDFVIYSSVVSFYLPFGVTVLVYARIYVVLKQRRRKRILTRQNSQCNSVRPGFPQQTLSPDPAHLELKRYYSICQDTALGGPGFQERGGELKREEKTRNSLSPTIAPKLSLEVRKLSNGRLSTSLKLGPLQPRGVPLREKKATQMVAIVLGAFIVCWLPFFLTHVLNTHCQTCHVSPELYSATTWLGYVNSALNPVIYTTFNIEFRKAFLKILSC
T3 sequence (P14416 1-414 isoform P14416-2): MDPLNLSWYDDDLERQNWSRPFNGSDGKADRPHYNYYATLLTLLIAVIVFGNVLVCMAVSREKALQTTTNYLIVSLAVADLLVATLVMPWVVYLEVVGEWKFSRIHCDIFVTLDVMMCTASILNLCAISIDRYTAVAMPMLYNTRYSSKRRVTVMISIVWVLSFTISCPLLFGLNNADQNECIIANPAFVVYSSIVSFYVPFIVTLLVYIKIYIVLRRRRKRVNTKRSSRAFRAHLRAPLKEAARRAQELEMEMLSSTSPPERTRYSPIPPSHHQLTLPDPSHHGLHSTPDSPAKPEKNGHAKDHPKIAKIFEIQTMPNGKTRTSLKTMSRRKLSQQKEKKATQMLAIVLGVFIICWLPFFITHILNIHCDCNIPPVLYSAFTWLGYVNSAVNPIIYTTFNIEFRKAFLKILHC
T2 sequence (P14416 whole entry): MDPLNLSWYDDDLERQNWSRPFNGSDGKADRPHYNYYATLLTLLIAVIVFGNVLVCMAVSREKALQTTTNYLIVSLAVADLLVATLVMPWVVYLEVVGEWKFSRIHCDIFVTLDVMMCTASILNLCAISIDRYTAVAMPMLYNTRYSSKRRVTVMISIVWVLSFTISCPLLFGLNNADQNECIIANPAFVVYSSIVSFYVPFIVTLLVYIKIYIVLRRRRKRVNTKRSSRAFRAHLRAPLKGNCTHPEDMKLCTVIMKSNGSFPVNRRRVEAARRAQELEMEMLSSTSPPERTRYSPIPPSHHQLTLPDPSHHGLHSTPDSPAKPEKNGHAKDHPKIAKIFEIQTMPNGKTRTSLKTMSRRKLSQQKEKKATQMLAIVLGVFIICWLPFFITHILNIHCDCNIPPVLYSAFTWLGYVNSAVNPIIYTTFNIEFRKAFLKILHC

For `CC1(C)CC(=O)N(CCCCN2CCN(c3ncccn3)CC2)C(=O)C1O` (centres unmarked) [3-OH gepirone, 4,4-Dimethyl-3-hydroxy-1-[4-[4-(2-pyrimidinyl)-1-piperazinyl]butyl]-2,6-piperidinedione], the “selectivity for the 5-HT1A receptor compared to the 5-HT2, 5-HT6, and 5-HT7 receptors (fold lower IC50)” value on 5-HT1A receptor is on record as “at least 30 fold”. Also, the “dopaminergic binding at D2A” value on D2A was “insignificant”. In addition, the “dopaminergic binding at D2B” value on D2B was “insignificant”. For the same molecule, the “dopaminergic binding at D3” value at D3 is reported as “insignificant”. The “affinity at Alpha 2A” value at Alpha 2A is listed as “did not display significant affinity”. Also, on Alpha 2B, the “affinity at Alpha 2B” value is given as “did not display significant affinity”. Further, the “binding at the Alpha 2C receptor” value at Alpha 2C receptor is reported as “weak binding”. Moreover, in data set [1], the “plasma levels of 3-OH gepirone” value was “available quickly and persists in the plasma for extended periods of time”.
As for `O=C1CC2(CCCC2)CC(=O)N1CCCCN1CCN(c2ncccn2)CC1` [buspirone], the half-life entry in [2] is given as “very short”.
Regarding `CC1(C)CC(=O)N(CCCCN2CCN(c3ncccn3)CC2)C(=O)C1` [gepirone, 4-dimethyl-1-[4-[4-(2-pyrimidinyl)-1-piperazinyl]butyl]-2,6-piperidinedione], the bioavailability in data set [2] (delivered orally) was 14-18%. For the same molecule, the half-life result in [2] is listed as “very short”.

These data come from patent US20030220346A1 (priority 2003, published 2003).
